These results are taken from PMC10004634 (PLOS ONE, 2023).

Where two headings read alike, the source gives them in different places.

Common to all, as to experiment: biochemical
Common to all, as to parameters: KINOMEscan scanMAX competition binding, DNA-tagged kinases, qPCR read-out, percent control at 300 nM
On the technique in general: Quantitative PCR measures a nucleic acid by following its amplification.

Assay [1] has as its target CLK2 (Homo sapiens, UniProt P49760).
Assay [2] addresses CSK (Homo sapiens, UniProt P41240).
The target in assay [3] is T1, EPHA3 (Homo sapiens, UniProt P29320).
T1 sequence (P29320 1-983): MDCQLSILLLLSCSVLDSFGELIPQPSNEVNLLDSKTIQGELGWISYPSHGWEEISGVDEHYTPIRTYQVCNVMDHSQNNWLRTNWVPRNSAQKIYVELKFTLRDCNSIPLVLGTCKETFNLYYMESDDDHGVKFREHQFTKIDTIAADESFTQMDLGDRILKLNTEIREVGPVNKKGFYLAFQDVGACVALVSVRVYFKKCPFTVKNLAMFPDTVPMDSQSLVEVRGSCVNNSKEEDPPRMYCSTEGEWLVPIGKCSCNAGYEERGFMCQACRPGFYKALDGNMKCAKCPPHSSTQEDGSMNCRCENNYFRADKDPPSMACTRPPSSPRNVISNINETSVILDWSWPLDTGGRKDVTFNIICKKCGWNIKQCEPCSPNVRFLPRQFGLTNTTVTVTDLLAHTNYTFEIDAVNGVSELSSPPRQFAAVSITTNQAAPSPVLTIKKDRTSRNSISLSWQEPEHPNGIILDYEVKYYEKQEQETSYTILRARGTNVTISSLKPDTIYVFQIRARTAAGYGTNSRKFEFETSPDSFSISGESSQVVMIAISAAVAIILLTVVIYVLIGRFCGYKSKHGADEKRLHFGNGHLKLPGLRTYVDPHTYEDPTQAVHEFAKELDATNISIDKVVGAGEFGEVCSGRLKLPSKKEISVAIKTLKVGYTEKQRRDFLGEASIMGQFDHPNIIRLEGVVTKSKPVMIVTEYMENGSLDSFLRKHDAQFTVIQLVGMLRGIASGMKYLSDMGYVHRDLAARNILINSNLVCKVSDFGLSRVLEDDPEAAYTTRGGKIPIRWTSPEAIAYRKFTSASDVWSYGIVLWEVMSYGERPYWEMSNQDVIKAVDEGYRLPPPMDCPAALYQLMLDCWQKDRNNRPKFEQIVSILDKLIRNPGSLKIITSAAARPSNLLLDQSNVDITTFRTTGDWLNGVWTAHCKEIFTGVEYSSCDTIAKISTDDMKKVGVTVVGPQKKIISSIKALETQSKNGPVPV

The target in assay [4] is T2, p38-alpha (Homo sapiens, UniProt Q16539).
T2 construct: gene MAPK14

In assay [5] the target is SRMS (Homo sapiens, UniProt Q9H3Y6).
The target in assay [6] is MET(M1250T) (Homo sapiens, UniProt P08581, M1250T).
In assay [7] the target is T3, VEGFR2 (Homo sapiens, UniProt P35968).
T3 construct: gene KDR

In assay [8] the target is KIT(D816H) (Homo sapiens, UniProt P10721, D816H).
The target of assay [9] is SRPK3 (Homo sapiens, UniProt Q9UPE1).
Assay [10] concerns the target CAMK4 (Homo sapiens, UniProt Q16566).
Where [11] appears, read: read-out: Percent control / Acalabrutinib.
[12] abbreviates: read-out: Percent control / Ibrutinib.
The mark [13] stands for this setting: read-out: Percent control / Tirabrutinib.
Where [14] appears, read: read-out: Percent control / Zanubrutinib.

Sequence of CSK (P41240 whole entry): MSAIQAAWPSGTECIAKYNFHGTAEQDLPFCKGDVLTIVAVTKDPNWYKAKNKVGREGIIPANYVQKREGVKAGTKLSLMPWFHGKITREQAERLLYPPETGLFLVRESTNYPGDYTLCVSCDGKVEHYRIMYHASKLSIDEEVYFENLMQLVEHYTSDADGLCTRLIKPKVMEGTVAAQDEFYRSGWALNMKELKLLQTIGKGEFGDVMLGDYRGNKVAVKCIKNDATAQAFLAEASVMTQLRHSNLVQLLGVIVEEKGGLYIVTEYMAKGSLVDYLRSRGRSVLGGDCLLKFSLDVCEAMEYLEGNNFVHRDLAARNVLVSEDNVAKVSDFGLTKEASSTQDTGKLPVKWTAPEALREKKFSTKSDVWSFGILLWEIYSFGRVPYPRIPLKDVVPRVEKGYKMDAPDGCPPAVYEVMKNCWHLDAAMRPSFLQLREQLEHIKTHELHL
Sequence of CLK2 (P49760 whole entry): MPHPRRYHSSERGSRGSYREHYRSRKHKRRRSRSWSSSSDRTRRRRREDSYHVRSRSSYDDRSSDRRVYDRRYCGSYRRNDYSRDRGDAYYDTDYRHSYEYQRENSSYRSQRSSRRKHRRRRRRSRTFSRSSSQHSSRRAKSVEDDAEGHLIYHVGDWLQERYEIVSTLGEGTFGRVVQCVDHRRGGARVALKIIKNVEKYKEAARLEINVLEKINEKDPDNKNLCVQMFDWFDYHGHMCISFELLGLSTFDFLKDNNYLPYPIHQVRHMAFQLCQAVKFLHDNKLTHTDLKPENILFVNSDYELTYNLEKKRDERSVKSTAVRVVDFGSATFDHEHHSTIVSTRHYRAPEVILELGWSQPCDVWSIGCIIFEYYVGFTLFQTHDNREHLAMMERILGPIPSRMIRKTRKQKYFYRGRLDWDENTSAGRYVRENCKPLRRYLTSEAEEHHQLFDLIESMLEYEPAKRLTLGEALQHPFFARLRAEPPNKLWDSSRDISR
Sequence of SRMS (Q9H3Y6 whole entry): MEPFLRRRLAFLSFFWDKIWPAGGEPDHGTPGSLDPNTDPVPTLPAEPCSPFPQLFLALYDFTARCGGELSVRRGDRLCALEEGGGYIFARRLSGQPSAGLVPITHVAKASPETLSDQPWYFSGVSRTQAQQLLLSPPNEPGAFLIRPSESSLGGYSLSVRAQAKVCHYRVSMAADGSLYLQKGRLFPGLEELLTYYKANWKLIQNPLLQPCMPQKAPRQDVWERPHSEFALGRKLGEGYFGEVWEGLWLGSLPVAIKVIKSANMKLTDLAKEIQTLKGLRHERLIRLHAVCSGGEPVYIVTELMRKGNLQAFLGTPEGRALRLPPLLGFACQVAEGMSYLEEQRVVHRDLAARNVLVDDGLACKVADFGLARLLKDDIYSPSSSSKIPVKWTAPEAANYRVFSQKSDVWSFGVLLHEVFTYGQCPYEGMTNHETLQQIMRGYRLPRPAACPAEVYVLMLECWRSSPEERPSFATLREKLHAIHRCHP
Sequence of MET(M1250T) (P08581 whole entry M1250T): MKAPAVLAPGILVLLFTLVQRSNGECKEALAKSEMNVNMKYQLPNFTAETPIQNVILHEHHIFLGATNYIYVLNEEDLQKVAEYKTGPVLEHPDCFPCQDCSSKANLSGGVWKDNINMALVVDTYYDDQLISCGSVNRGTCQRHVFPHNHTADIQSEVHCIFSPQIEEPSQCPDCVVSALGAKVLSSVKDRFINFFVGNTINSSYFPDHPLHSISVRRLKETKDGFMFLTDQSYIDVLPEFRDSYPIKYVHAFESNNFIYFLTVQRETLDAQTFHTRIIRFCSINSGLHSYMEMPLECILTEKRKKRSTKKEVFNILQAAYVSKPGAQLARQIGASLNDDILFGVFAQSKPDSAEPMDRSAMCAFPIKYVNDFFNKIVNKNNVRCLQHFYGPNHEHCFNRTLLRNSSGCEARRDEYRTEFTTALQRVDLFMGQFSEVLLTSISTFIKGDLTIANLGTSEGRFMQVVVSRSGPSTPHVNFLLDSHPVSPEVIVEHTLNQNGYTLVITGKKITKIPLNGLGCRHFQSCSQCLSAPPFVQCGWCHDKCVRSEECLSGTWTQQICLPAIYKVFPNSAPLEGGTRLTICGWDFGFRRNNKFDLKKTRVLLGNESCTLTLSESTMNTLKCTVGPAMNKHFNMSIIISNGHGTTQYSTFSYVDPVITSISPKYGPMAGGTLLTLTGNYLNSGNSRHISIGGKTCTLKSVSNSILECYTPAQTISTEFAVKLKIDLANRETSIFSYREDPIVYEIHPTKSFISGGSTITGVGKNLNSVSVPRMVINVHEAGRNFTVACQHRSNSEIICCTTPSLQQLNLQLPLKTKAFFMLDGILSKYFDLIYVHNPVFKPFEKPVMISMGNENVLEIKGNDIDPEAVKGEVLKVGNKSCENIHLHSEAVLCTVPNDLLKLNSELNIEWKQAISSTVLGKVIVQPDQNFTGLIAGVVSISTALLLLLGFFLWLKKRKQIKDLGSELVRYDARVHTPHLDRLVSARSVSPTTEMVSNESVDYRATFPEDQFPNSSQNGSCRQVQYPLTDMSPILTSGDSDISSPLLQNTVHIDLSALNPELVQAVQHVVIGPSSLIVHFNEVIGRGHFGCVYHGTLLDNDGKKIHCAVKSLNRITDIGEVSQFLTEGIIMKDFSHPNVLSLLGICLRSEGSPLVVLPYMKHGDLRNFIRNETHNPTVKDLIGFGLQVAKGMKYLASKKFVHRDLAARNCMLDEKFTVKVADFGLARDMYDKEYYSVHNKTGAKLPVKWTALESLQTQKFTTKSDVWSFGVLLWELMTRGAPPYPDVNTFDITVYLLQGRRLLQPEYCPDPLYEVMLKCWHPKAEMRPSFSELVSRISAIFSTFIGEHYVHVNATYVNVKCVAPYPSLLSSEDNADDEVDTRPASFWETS
Sequence of SRPK3 (Q9UPE1 whole entry): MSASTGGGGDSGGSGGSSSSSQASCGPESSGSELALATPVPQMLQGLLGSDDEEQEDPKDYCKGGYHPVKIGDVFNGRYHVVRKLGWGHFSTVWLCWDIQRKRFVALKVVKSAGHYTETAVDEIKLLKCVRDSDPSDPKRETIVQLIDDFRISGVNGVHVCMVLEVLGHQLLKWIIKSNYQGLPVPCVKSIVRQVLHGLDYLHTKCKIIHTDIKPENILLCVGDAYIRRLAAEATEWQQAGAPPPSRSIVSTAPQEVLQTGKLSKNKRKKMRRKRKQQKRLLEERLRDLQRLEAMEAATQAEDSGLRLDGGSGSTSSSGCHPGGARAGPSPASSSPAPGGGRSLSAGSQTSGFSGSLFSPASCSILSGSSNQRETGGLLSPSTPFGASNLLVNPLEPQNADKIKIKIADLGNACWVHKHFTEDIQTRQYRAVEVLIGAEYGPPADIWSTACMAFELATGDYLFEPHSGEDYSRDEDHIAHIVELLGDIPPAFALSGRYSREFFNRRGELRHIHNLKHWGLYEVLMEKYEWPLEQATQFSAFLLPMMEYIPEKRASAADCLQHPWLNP
T2 sequence (Q16539 whole entry): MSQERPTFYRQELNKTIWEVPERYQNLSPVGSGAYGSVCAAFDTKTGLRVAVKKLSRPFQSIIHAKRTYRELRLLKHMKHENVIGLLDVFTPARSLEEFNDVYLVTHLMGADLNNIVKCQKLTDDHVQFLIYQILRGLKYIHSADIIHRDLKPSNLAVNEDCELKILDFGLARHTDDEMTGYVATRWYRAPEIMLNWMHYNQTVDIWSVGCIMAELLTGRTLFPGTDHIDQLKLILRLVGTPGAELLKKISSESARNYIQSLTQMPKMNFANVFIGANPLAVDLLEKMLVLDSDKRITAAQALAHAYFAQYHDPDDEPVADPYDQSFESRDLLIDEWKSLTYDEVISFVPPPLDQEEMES
Sequence of CAMK4 (Q16566 whole entry, looked up): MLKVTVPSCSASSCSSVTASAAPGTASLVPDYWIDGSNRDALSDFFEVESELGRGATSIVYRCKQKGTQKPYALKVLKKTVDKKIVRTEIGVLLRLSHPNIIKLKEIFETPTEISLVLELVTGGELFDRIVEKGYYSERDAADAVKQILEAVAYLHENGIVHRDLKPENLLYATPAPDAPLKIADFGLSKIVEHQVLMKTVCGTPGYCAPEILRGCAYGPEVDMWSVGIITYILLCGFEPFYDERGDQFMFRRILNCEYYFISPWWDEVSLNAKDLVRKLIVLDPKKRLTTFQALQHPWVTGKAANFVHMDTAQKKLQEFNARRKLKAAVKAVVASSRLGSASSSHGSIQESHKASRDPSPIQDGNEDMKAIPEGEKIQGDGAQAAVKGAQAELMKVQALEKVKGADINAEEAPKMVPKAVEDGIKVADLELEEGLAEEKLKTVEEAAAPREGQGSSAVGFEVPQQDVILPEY

For the compound `CC#CC(=O)N1CCC[C@H]1c1nc(-c2ccc(C(=O)Nc3ccccn3)cc2)c2c(N)nccn12` [Acalabrutinib], the remaining binding at 0.3 µM in assay [1] (setting [11]) came out at 99%; in assay [2] (setting [11]) it was 85%; in assay [3] (setting [11]), 74%; in assay [4] (setting [11]) it was 85%; in assay [5] (setting [11]), 79%; in assay [6] (setting [11]) it was 93%. Also, the remaining binding at 0.3 µM in assay [7] (setting [11]) was found to be 98%; in [8] (setting [11]), 82%; in [9] (setting [11]), 86%.

For the compound `C=CC(=O)N1CCC[C@@H](n2nc(-c3ccc(Oc4ccccc4)cc3)c3c(N)ncnc32)C1` [Ibrutinib], the remaining binding at 0.3 µM in [2] (setting [12]) is 1.4%; in [3] (setting [12]), 82%; in assay [10] (setting [12]), 96%; in assay [4] (setting [12]), 98%; in [5] (setting [12]), 0.3%; in [7] (setting [12]), 95%. Besides, the remaining binding at 0.3 µM in assay [9] (setting [12]) came to 96%.

Turning to `CC#CC(=O)N1CC[C@@H](n2c(=O)n(-c3ccc(Oc4ccccc4)cc3)c3c(N)ncnc32)C1` [Tirabrutinib], the remaining binding at 0.3 µM in assay [1] (setting [13]) stood at 94%; in assay [2] (setting [13]) it was 47%; in assay [3] (setting [13]), 92%; in assay [10] (setting [13]), 82%; in assay [4] (setting [13]) it was 92%; in assay [5] (setting [13]), 82%. Moreover, the remaining binding at 0.3 µM in assay [6] (setting [13]) came to 93%; in [8] (setting [13]), 84%.

For the compound `C=CC(=O)N1CCC([C@@H]2CCNc3c(C(N)=O)c(-c4ccc(Oc5ccccc5)cc4)nn32)CC1` [Zanubrutinib], the remaining binding at 0.3 µM in [1] (setting [14]) is 87%; in assay [3] (setting [14]), 75%; in assay [10] (setting [14]) it was 91%; in assay [4] (setting [14]), 97%; in [6] (setting [14]), 100%; in assay [7] (setting [14]), 100%. In addition, the results for the remaining binding at 0.3 µM in assay [8] (setting [14]) and in assay [9] (setting [14]) were 96% and 100%, respectively.
